{
  "source": "patent US10238614B2",
  "about": "“Uses of 6-aminohexanoic acid to manage bleeding conditions” (EMORY UNIVERSITY, priority 2013, dated 2019)",
  "key": {"[1]": {"system": "thrombocytopenic patients with hematological malignancies", "experiment": "Retrospective study of prophylactic oral EACA in outpatients with chronic transfusion-dependent thrombocytopenia", "type": "in vivo, human", "description": "Patients were managed in the outpatient setting despite their severe thrombocytopenia and received EACA as a substitution for prophylactic, threshold directed platelet transfusion.\nPatients with chronic transfusion dependent thrombocytopenia who received prophylactic EACA in the outpatient setting were identified through a computerized database search. After initiation of EACA, prophylactic threshold-driven platelet transfusion was discontinued and patients received only therapeutic platelet transfusion in case of bleeding, except when admitted to the inpatient ward. In the inpatient ward, prophylactic platelets were routinely infused when platelets were <10×10^9/L. The number of platelets transfused in the hospital in the absence of bleeding was censored. Patient demographics, diagnosis, treatment, platelet counts, duration of thrombocytopenia, transfusion history, bleeding and outcomes were captured onto study-specific case report forms. Bleeding was captured regardless of patient's location (out-patient or wards) and retrospectively scored based on the ITP WHO classification: grade 1=petechial bleed, grade 2=clinically mild blood loss, grade 3=gross blood loss requiring transfusion, and grade 4=retinal, cerebral, or debilitating blood loss. Statistics were descriptive.\nPatients were monitored in the outpatient clinic, with a CBC obtained at least once a week."}, "[2]": {"system": "patients with thrombocytopenic hemorrhage / severely thrombocytopenic patients with hematological malignancies", "details": "cited from earlier work"}, "[3]": {"details": "ITP WHO bleeding classification grade, median (range)"}, "[4]": {"details": "severe and refractory thrombocytopenic patients not receiving prophylactic platelet transfusion"}},
  "data": [
    {"smiles": "NCCCCCC(=O)O", "note": "[EACA, 6-aminohexanoic acid]", "values": [
      {"measurement": "tolerability", "setting": "[1]; 1 gram orally twice daily, median 47 days", "value": "overall well tolerated"},
      {"measurement": "patients who discontinued EACA due to platelet recovery", "setting": "[1]; 18 of 44 patients", "value": 41, "unit": "%"},
      {"measurement": "discontinuation due to intolerance", "setting": "[1]; 44 patients", "value": "no patients discontinued EACA due to intolerance"},
      {"measurement": "venous thromboembolic event", "setting": "[1]; 44 patients", "value": "No patient experienced a venous thromboembolic event"},
      {"measurement": "patients who received platelet transfusions while on EACA", "setting": "[1]; 44 patients, EACA 1 gram orally twice daily, no prophylactic platelet transfusions, 7/44", "value": 16, "unit": "%"},
      {"measurement": "median bleeding score for the 19 minor bleeding events", "setting": "[1]; [3]", "value": "1 (1-2)"},
      {"measurement": "median score for the 10 bleeding episodes treated with transfusion", "setting": "[1]; [3]", "value": "2 (2-4)"},
      {"measurement": "patients with minor mucocutaneous bleeding that resolved spontaneously and did not require platelet transfusions", "setting": "[1]; eleven of 44 patients", "value": 25, "unit": "%"},
      {"measurement": "patients with grade 3 bleeding", "setting": "[1]; hematochezia from a pre-existing rectal ulcer", "value": 1, "unit": "patient"},
      {"measurement": "bleeding episodes treated with platelet transfusions", "setting": "[1]; in 7/44 patients while on EACA", "value": 10},
      {"measurement": "episodes of minor mucocutaneous bleeding that resolved spontaneously", "setting": "[1]; in eleven patients, epistaxis, bruises, oral, vaginal", "value": 19, "unit": "episodes"},
      {"measurement": "grade 2 mucocutaneous bleeds requiring transfusion", "setting": "[1]; in the other 5 patients: hemorrhoid, epistaxis, oral, bladder and vaginal", "value": 8},
      {"measurement": "grade 3-4 bleedings", "setting": "[1]; in the setting of a trauma and from a pre-existing condition", "value": "Two"},
      {"measurement": "major spontaneous bleeds", "setting": "[1]; median platelet counts 8×10^9/L, no prophylactic platelet transfusions, median 47 days, up to 209 days", "value": "no major spontaneous bleeds were observed"},
      {"measurement": "platelet refractory patients with bleeding episodes", "setting": "[1]; of the 10 platelet refractory patients, mucocutaneous (3 grade 1, 5 grade 2 and 1 grade 3)", "value": 4},
      {"measurement": "patients who discontinued EACA due to the onset of hematuria", "setting": "[1]; one of 44 patients", "value": 2, "unit": "%"},
      {"measurement": "overall safety", "setting": "[1]; [4]", "value": "safe"},
      {"measurement": "risk of major spontaneous bleeding", "setting": "[1]; [4]", "value": "low risk of major spontaneous bleeding"},
      {"measurement": "patient-reported effect on petechiae and subcutaneous bleeds", "setting": "[1]; shortly after initiation of EACA", "value": "rapid disappearance of petechiae and resolution of subcutaneous bleeds"},
      {"measurement": "median platelet transfusions in transfused patients", "setting": "[1]; summary statement, 16% of patients transfused", "value": 4, "unit": "units"},
      {"measurement": "median number of platelets transfusions received to treat bleeding episodes", "setting": "[1]; the 7 transfused patients, median (range)", "value": "4 (range, 1-8)"},
      {"measurement": "patients with grade 4 bleeding", "setting": "[1]; traumatic intracranial hemorrhage secondary to motor vehicle accident", "value": 1, "unit": "patient"},
      {"measurement": "effect on transfusion requirements", "setting": "[2]; patients with thrombocytopenic hemorrhage, Kalmadi et al., Cancer 2006", "value": "reduces transfusion requirements"},
      {"measurement": "effect on bleeding", "setting": "[2]; severely thrombocytopenic patients with hematological malignancies, Antun et al., Cancer 2013", "value": "prevents bleeding"}
    ]}
  ]
}
